Measurements reported in US5952511A, “Indolin-2-one derivatives” (Chugai Seiyaku Kabushiki Kaisha, priority 1993, dated 1999).

Assays:
[1] = molecular target: T1, CCK-B receptors (rat cerebral cortex) (Rattus norvegicus, UniProt P30553); assay: CCK-B Receptor Binding Test in Rat Cerebral Cortex (Test Example 3); design: species or system rat (Sprague-Dawley, male); settings: inhibition of specific 125I-CCK-8 sulfated binding (15 pM), 25° C., 120 min
T1 construct: Cerebral cortex was minced in the same buffer, and homogenized with Polytron; from tissue; host or cells: cerebral cortex membrane fraction of Sprague-Dawley male rats
T1 sequence (P30553 1-452): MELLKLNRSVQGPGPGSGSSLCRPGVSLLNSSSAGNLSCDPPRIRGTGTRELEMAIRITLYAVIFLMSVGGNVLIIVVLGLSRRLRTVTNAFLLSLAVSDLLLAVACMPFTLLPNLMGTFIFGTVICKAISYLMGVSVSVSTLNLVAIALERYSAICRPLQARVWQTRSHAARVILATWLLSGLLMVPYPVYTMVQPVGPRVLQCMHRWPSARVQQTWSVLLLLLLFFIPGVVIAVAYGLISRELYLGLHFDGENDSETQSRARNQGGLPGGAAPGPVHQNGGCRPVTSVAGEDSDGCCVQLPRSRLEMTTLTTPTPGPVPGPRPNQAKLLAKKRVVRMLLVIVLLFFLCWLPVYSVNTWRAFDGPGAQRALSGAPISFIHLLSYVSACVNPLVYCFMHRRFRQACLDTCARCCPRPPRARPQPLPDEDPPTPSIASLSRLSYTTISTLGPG
Experimental: CCK-B Receptor Binding Test in Rat Cerebral Cortex
A rat cortical membrane fraction was prepared in accordance with the method of Chang, et al., Proc. Natl. Acad. Sci., U.S.A., 83, 4923 (1986). Sprague-Dawley male rats were sucrified and the brains were removed and immersed in a 50 mM Tris-HCl buffer (pH 7.4) under ice-cooling, and the cortex was dissected. Cerebral cortex was minced in the same buffer, and homogenized with Polytron. The homogenate was centrifuged at 2,500 g, and the supernatant was further centrifuged at 50,000 g. The pellet was resuspended in a reaction buffer solution (10 mM HEPES, 5 mM MgCl2, 1 mM EGTA, 130 mM NaCl; pH 6.5).
To 150 μl of the resulting rat cerebral cortex suspension were added 20 μl of ^125 I-CCK-8 sulfated (final concentration: 15 pM) and 10 μl of a test compound or a solvent (for total binding) or 1 μM CCK-8 sulfated (for nonspecific binding), and the reaction buffer solution was added there to make 1 ml. The reaction mixture was incubated at 25° C. for 120 minutes, followed by filtration through a GF/B filter (produced by Whatman). The radio-activity of the membrane fraction adsorbed onto the filter was measured with a gamma-counter.
The specific binding to CCK-B receptors was obtained from a difference between the total binding and the nonspecific binding. The IC50 of the test compound in inhibition of specific binding was calculated.

[2] = molecular target: T2, gastrin receptors (guinea pig gastric glands) (Cavia porcellus, UniProt H0VZC5); assay: Gastrin Receptor Binding Test in Guinea Pig Gastric Glands (Test Example 1); design: species or system guinea pig (Hartley, male); settings: inhibition of specific 125I-gastrin I human binding (22.5 pM), 25° C., 45 min
T2 construct: The gastric glands were isolated from the tissue with a pipette; from tissue; host or cells: isolated gastric glands from gastric mucosa of Hartley male guinea pigs
T2 sequence (H0VZC5 1-426): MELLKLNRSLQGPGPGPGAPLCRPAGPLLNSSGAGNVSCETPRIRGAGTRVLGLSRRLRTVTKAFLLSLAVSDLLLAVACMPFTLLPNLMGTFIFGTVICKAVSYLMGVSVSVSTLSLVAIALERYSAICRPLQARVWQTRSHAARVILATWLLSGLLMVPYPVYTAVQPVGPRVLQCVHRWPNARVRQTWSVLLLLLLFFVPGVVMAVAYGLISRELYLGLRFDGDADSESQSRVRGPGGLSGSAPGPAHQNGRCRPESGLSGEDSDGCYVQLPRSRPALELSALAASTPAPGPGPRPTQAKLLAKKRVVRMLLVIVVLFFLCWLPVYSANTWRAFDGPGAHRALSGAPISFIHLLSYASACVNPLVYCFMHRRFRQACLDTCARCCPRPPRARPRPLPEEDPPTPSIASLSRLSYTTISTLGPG
Experimental: Gastrin Receptor Binding Test in Guinea Pig Gastric Glands
Preparation of Gastric Glands:
Guinea pig gastric glands were prepared according to the method of Chang, et al., Biochem. Biophys. Res. Commun., 134, 895 (1986). The gastric mucosa of a Hartley male guinea pig was peeled off. After washing, the mucosa was minced with scissors in buffer A (Eagle's MEM containing 2 mM L-glutamine and 25 mM HEPES; pH 7.4). After washing, the minced tissue was incubated in buffer A containing 0.025% collagenase, 0.01% soy bean trypsin inhibitor, and 0.1% BSA at 37° C. for 60 minutes under 95% O2 and 5% CO2. The gastric glands were isolated from the tissue with a pipette, washed twice with buffer A, and filtered through a mesh. Then, the gastric glands were obtained by centrifugation.
Guinea pig gastric glands were resuspended in buffer B (Hank's solution containing 10 mM HEPES and 0.2% BSA; pH 7.4) (10 ml of buffer B per guinea pig).
To 200 μl of the suspension containing the resuspended isolated gastric glands were added 20 μl of ^125 I-gastrin I human (final concentration: 22.5 pM). Then, 10 μl of a test compound or a solvent (for total binding) or 10 μM Pentagastrin (for nonspecific binding), and buffer B was added there to make a total volume of 1 ml. The reaction mixture was incubated at 25° C. for 45 minutes and then centrifuged at 12000 g. The supernatant was removed by suction, and the radioactivity of the isolated gastric glands was measured with a gamma-counter.
The specific binding of gastrin to gastrin receptors was obtained from a difference between the total binding and the nonspecific binding. The IC50 of the test compound in inhibition of specific binding was calculated.

gastric acid secretion = assay: Inhibitory Activity on Gastric Acid Secretion in Pylorus Ligated Rats (Test Example 2); type: in vivo, rat (Sprague-Dawley, male); settings: Rattus norvegicus, intraduodenal, 10 mg/kg, i.d., 4 h
Experimental: Inhibitory Activity on Gastric Acid Secretion in Pyrolus Ligated Rats
Sprague-Dawley male rats weighing about 200 g were deprived of food for 24 hours while allowed water ad libitum. The abdomen was opened under anesthesia with ethyl ether, the pyrolus ligated, and the abdomen closed. The rats were deprived of food and water for 4 hours until they were surcrified with ethyl ether. The stomach was removed, and gastric juice was collected and measured. The gastric juice was centrifuged at 3000 rpm, and the supernatant was titrated up to pH 7.0 with 0.1N NaOH solution to obtain the acidity of the gastric juice. The amount of the gastric acid output was calculated by multiplying the gastric juice volume by the acidity, and the percent inhibition of acid secretion was obtained according to the following equation. A test compound, suspended in a 3% gum arabic solution, was administered intraduodenally at a dose of 2 ml/kg immediately after the pyrolus ligation.
Inhibition (%)=[(Average amount of gastric acid output in control group--Average amount of gastric acid output in test group)/Average amount of gastric acid secreted […]]×100

SMILES | IC50 [1] | IC50 [2] | inhibition in vivo at 10 mg/kg (gastric acid secretion)
CCOC(CN1C(=O)C(CC(=O)Nc2ccc(C)cc2)(NC(=O)Nc2ccc(C)cc2)c2ccccc21)OCC (racemic) [Example 71, (RS)-1-(2,2-Diethoxyethyl)-3-((4-methylphenyl)aminocarbonylmethyl)-3-(N'-(4-methylphenyl)ureido)indolin-2-one] | 1.2 nM | 1.1 nM | 48%
CCOC(CN1C(=O)C(CC(=O)Nc2cccc(OC)c2)(NC(=O)Nc2ccc(C)cc2)c2ccccc21)OCC (racemic) [Example 129, (RS)-1-(2,2-Diethoxyethyl)-3-((3-methoxyphenyl)aminocarbonylmethyl)-3-(N'-(4-methylphenyl)ureido)indolin-2-one] | 0.39 nM | 3.6 nM | 71%
CCOC(CN1C(=O)C(NC(=O)Nc2ccc(C)cc2)(NC(=O)Nc2ccc(C)cc2)c2ccccc21)OC (racemic) [Example 7, (RS)-1-(2-Ethoxy-2-methoxyethyl)-3,3-bis(N'-(4-methylphenyl)ureido)indolin-2-one] | 0.07 nM |  | 
CCOC(CN1C(=O)C(CC(=O)Nc2ccc(C)cc2)(NC(=O)Nc2ccc(C#N)cc2)c2ccccc21)OCC (racemic) [Example 92, (RS)-3-(N'-(4-Cyanophenyl)ureido)-1-(2,2-diethoxyethyl)-3-((4-methylphenyl)aminocarbonylmethyl)indolin-2-one] | 0.9 nM | 4.3 nM | 57%
Cc1ccc(NC(=O)CC2(NC(=O)Nc3ccc(C)cc3)C(=O)N(Cc3ccccc3)c3ccccc32)cc1 (racemic) [Example 62, (RS)-1-Benzyl-3-((4-methylphenyl)aminocarbonylmethyl)-3-(N'-(4-methylphenyl)ureido)indolin-2-one] | 1.2 nM |  | 
CCOC(CN1C(=O)C(CC(=O)Nc2ccc(C)cc2)(NC(=O)Nc2ccc(OC)cc2)c2ccccc21)OCC (racemic) [Example 79, (RS)-1-(2,2-Diethoxyethyl)-3-(N'-(4-methoxyphenyl)ureido)-3-((4-methylphenyl)aminocarbonylmethyl)indolin-2-one] |  | 1.9 nM | 47%
Cc1ccc(NC(=O)CC2(NC(=O)Nc3ccc(C)cc3)C(=O)N(CCc3ccccc3)c3ccccc32)cc1 (racemic) [Example 66, (RS)-3-((4-Methylphenyl)aminocarbonylmethyl)-3-(N'-(4-methylphenyl)ureido)-1-(2-phenylethyl)indolin-2-one] | 0.76 nM |  | 
CCOC(CN1C(=O)C(CC(=O)Nc2ccc(N)cc2)(NC(=O)Nc2ccc(C)cc2)c2ccccc21)OCC (racemic) [Example 125, (RS)-3-((4-Aminophenyl)aminocarbonylmethy)-1-(2,2-diethoxyethyl)-3-(N'-(4-methylphenyl)ureido)indolin-2-one] |  | 2.5 nM | 54%
Cc1ccc(NC(=O)CC2(NC(=O)Nc3ccc(C)cc3)C(=O)N(Cc3ccccn3)c3ccccc32)cc1 (racemic) [Example 65, (RS)-3-((4-Methylhenyl)aminocarbonylmethyl)-3-(N'-(4-methylphenyl)ureido)-1-(2-pyridylmethyl)indolin-2-one] | 0.76 nM |  | 

More lines, main results first:

IC50 [1] | IC50 [2] | SMILES | inhibition in vivo at 10 mg/kg (gastric acid secretion)
0.36 nM | 4.6 nM | CCOC(CN1C(=O)C(CC(=O)Nc2ccc(N(C)C)cc2)(NC(=O)Nc2ccc(C)cc2)c2ccccc21)OCC (single isomer, unassigned; (+)) [Example 180, (+)-1-(2,2-Diethoxyethyl)-3-((4-(N,N-dimethylamino)phenyl)aminocarbonylmethyl)-3-(N'-(4-methylphenyl)ureido)indolin-2-one] | 73%
0.45 nM | 5.5 nM | CCOC(CN1C(=O)C(CC(=O)Nc2ccc(N(C)C)cc2)(NC(=O)Nc2cccc(OC)c2)c2ccccc21)OCC (single isomer, unassigned; (+)) [Example 191] | 78%
0.5 nM | 2.2 nM | CCOC(CN1C(=O)C(CC(=O)Nc2ccc(C)cn2)(NC(=O)Nc2ccc(C)cc2)c2ccccc21)OCC (racemic) [Example 138, (RS)-1-(2,2-Diethoxyethyl)-3-(N'-(4-methylphenyl)ureido)-3-((5-methylpyrido-2-yl)aminocarbonylmethyl)indolin-2-one] | 69%
0.42 nM | 0.54 nM | CCOC(CN1C(=O)C(CC(=O)Nc2ccc(C)cc2)(NC(=O)Nc2ccc(C)cc2)c2ccccc21)OCC (single isomer, unassigned; (+)) [Example 174, (+)-1-(2,2-Diethoxyethyl)-3-(4-methylphenyl)aminocarbonylmethyl-3-(N'-(4-methylphenyl)ureido)indolin-2-one] | 70%
0.78 nM | 2.2 nM | CCOC(CN1C(=O)C(CC(=O)Nc2ccc(OC)nc2)(NC(=O)Nc2ccc(C)cc2)c2ccccc21)OCC (single isomer, unassigned; (+)) [Example 181, (+)-1-(2,2-Diethoxyethyl)-3-((2-methoxypyrido-5-yl)aminocarbonylmethyl)-3-(N'-(4-methylphenyl)ureido)indolin-2-one] | 69%
0.56 nM | 1.4 nM | CCOC(CN1C(=O)C(CC(=O)Nc2ccc(C)cn2)(NC(=O)Nc2cccc(OC)c2)c2ccccc21)OCC (racemic) [Example 158, (RS)-1-(2,2-Diethoxyethyl)-3-(N'-(3-methoxyphenyl)ureido)-3-((5-methylpyrido-2-yl)aminocarbonylmethyl)indolin-2-one] | 66%
